Results reported in US20230130103A1, “TARGETED PHARMACOLOGICAL THERAPEUTICS IN UVEAL MELANOMA” (Washington University, priority 2017, published 2023).
Starred links: 1 amine or outer side, 2 acyl side, 3 side chain; linkers in the order of their positions; H or OH if unused. Positions of bridges follow the written chain, without caps; N, C: chain ends. Non-standard residues stand in square brackets, D forms with d. Residues, ends and D or L forms follow the SMILES beside them. *: point of attachment. Leu(3R-OH,Nα-propionyl) = CCC(=O)N[C@H](C(=O)*)[C@H](O)C(C)C; X1 = CC(C)[C@@H](O[*:3])[C@H](N[*:1])C(=O)[*:2]; X2 = CC(C)[C@H](O[*:3])[C@@H](N[*:1])C(=O)[*:2]; NMeaThr = CN[C@H](C(=O)O)[C@H](C)O; dPhLac = O=C(O)[C@H](O)Cc1ccccc1; NMeA = CN[C@@H](C)C(=O)O; NMeDha = C=C(NC)C(=O)O

Experiments:
OCM-1A cells [1] = experiment: YAP-driven transcriptional reporter; type: cell-based, Human; settings: FIG. 6B
Description: (§1) Expression data from two experimental replicates are mean-centered; the color gradient corresponds to difference in log 2 ratio of expression from the mean, such that 0.5 versus −0.5 is a total difference of 2-fold in unlogged expression.
(§2) Assays of transcriptional reporters driven by YAP or Gα subunits were performed as described (42, 43). YAP- or Ga-driven firefly luciferase activity was normalized to Renilla luciferase expressed from a constitutive promoter.

92.1 cells = experiment: YAP-driven transcriptional reporter; type: cell-based; settings: Homo sapiens, FIG. 6B, read-out: EC50, increase in expression of YAP-driven transcriptional reporter
Description: as §1, §2

Mel202 cells [2] = experiment: YAP-driven transcriptional reporter; type: cell-based; settings: Homo sapiens, FIG. 6B, read-out: EC50, increase in expression of YAP-driven transcriptional reporter
Description: as §1, §2

Gαi/q(R54K) = experiment: In vitro nucleotide exchange (BODIPY-GTPγS fluorescence); type: biochemical; settings: Gαi/q(R54K) vs Gαi/q
Mel202 cells [3] = experiment: Melanocytic re-differentiation (morphology, pigmentation, immunostaining); type: cell-based, Human
Description: (§3) FIG. 5A Morphological changes elicited by FR. UM cell lines were treated 3 d with FR and imaged by phase contrast microscopy. FR caused UM cells driven by constitutively active Gαq (92.1 and Mel202) to lose their characteristic spindle shaped and assume a stellate shape with multiple projections. FR had no effect on BRAF-driven UM cells (OCM-1A). FIG. 5B Melanocytic differentiation of FR-treated UM cells indicated by pigmentation. UM cell lines were treated 3 d with FR. Cells were pelleted and examined macroscopically. […] Scale bar=50 μm.
(§4) Cell fixation was carried out by adding an equal volume of 2×fixative (PBS with 4% paraformaldehyde and 0.4% glutaraldehyde) to UM cells in RPMI growth medium. After 15 min at 37° C., cells were permeabilized with 0.1% Triton X-100 in PBS for 5 min, washed with PBS, and blocked with 2% fish gelatin (Sigma-Aldrich) in PBS. Primary and secondary antibodies were diluted in 2% fish gelatin in PBS. Primary antibodies included mouse monoclonal anti-pre-melanosomal protein (One World Lab, San Diego, Calif.), rabbit polyclonal anti-tyrosinase (One World Lab), rabbit polyclonal anti-dopachrome tautomerase (One World Lab), rabbit polyclonal anti-S100 (DakoCytomation, Denmark), and mouse monoclonal anti-BrdU (Life Technologies). Secondary antibodies were Alexa-fluor conjugates (Life Technologies), and the mounting agent was ProLong Gold (Life Technologies). Cell morphology was assessed by phase contrast imaging with an inverted microscope (Olympus IX72) using a 10×objective.

OCM-1A cells [4] = experiment: as above; type: cell-based, Human; settings: 3 d FR, FIG. 5A
Description: as §3, §4

[5] = target: T1, constitutively active Gα13 with the RGS domain of LARG (Homo sapiens, UniProt Q14344, Q226L); experiment: Split luciferase complementation, Gα interaction with RGS domain of LARG; type: cell-based; settings: FIG. 1C
T1 construct: expressed in transfected cells; host or cells: HEK-293
T1 sequence (Q14344 1-377 Q226L): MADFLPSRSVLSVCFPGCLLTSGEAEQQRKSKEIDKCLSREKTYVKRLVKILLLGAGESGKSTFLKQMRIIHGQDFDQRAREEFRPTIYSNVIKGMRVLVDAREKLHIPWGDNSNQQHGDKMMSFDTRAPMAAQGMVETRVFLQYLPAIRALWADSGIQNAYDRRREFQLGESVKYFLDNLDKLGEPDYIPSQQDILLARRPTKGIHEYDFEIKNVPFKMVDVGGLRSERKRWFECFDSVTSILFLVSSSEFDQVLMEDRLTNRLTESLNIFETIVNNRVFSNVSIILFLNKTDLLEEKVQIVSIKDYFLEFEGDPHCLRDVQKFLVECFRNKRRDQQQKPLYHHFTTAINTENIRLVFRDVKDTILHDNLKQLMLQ
Source text: (FIG. 1A-1C) depicts the effect of FR on the activity state of Gα subunits as determined by interaction with Gβγ or RGS domains in split luciferase complementation assays. FIG. 1A Effect of FR on interaction of Gβγ2 with the indicated wild type (WT) or mutant constitutively active (Q/L) forms of Gα (q) or Gα13 (13). * p<0.01; ** p<0.05. FIG. 1B Potency of FR as a driver of interaction of Gβγ2 with wild type or mutant constitutively active Gαq. FIG. 1C Potency of FR as inhibitor of interaction of RGS2 with mutant constitutively active (Q/L) Gαq, or interaction of the RGS domain of LARG (LARG-RGS) with mutant constitutively active Gα13. FIG. 1D Potency of FR as inhibitor of signal transduction by constitutively active Gαq or Gα13 detected with an SRE(L) promoter-driven transcriptional reporter. Constitutively active Gαq (Q/L), constitutively active Gαq bearing the indicated FR binding site mutations, and constitutively Gα13 (Q/L) were studied.
To detect protein-protein interactions, a split luciferase complementation assays was used (23), as employed to study activation state-dependent interaction between Gα subunits and cognate binding partners (24).
Split luciferase assays were performed as described (24). […]

## C=C1C(=O)N[C@@H](C)C(=O)N(C)[C@@H](C)C(=O)N[C@H]([C@@H](OC(=O)[C@@H](NC(=O)CC)[C@H](O)C(C)C)C(C)C)C(=O)N(C)[C@@H]([C@H](C)OC)C(=O)O[C@H](C(C)C)[C@H](NC(C)=O)C(=O)O[C@H](Cc2ccccc2)C(=O)N1C [FR, [(1S)-1-[(3S,6R,9S,12S,18R,21S,22R)-21-acetamido-18-benzyl-3-[(1S)-1-methoxyethyl]-4,9,10,12,16-pentamethyl-15-methylidene-2,5,8,11,14,17,20-heptaoxo-22-propan-2-yl-1,19-dioxa-4,7,10,13,16-pentazacyclodocos-6-yl]-2-methylpropyl] (2S,3R)-3-hydroxy-4-methyl-2-(propanoylamino)pentanoate] (Ac-[X1][dPhLac][NMeDha]A[NMeA][X2](Leu(3R-OH,Nα-propionyl))[NMeaThr](Me); ester 1-C)
OCM-1A cells [1]
  effect on YAP-driven transcriptional reporter: no effect
92.1 cells
  EC50: 3 nM
Mel202 cells [2]
  EC50: 0.8 nM
Gαi/q(R54K)
  fold less potent than toward Gαi/q, nucleotide exchange: ~10 fold
Mel202 cells [3]; 3 d FR, FIG. 5A
  cell morphology (phase contrast): morphological changes indicative of re-differentiation
Mel202 cells [3]; 3 d FR, FIG. 5B
  melanocytic pigmentation: strikingly increased
Mel202 cells [3]; FIG. 5C
  expression levels of TYR, DCT and PMEL (immunofluorescence): increased
OCM-1A cells [4]
  cell morphology (phase contrast): no effect
[5]
  effect on interaction with the RGS domain of LARG: lack of effect
